This passage reports Normal melting temperature results from the NIST ThermoML archive (doi:10.1021/je900852t).

Numbers after ± are expanded uncertainties.

The conditions of the data set: Crystal; visual observation.

For `c1ccc2cc3ccccc3cc2c1` [anthracene], the Normal melting temperature came out at 215 ± 1 °C.
